Test results published in publication PMC6162330, “Insights into a dual function amide oxidase/macrocyclase from lankacidin biosynthesis” (Nature Communications, 2018).
Blank lines part the entries; values can stand above or below the molecule they belong to.

How the values were obtained:
[1] = target: T1, LkcE (Streptomyces rochei, UniProt G4V2H3); test: X-ray crystallography, […] Å; mass spectrometry of released cofactor; assay type: binding; conditions: non-covalent; co-purified; selenomethionyl holo crystal
T1 construct: recombinant from E. coli (pBG-102), His6-SUMO tag removed by HRV3C protease

[2] = target: T1, LkcE; test: X-ray crystallography, […] Å, co-crystal; assay type: binding; conditions: active site, one of the two per site, no turnover
[3] = target: LkcE wild type (amide oxidase/macrocyclase of lankacidin biosynthesis, Streptomyces rochei) (Streptomyces rochei); test: SAXS; recombinant LkcE in solution; Rg 31.0 Å, Dmax 91 Å; compared with the homodimer's calculated mass and the LkcEWT crystal structure

T1 sequence (G4V2H3 entry or part of it): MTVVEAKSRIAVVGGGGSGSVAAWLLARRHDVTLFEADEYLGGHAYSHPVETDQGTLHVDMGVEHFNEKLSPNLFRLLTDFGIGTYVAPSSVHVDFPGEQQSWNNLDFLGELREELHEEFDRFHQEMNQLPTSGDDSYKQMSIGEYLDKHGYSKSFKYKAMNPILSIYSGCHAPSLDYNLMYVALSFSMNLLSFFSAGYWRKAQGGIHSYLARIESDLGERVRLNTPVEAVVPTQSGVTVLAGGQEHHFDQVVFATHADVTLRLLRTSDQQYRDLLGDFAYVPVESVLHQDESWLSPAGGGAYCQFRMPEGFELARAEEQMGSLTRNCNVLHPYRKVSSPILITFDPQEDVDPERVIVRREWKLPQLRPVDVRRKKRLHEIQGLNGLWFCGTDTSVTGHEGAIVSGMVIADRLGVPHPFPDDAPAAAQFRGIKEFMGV

X-ray crystallography, 3.15 Å; mass spectrometry of released cofactor [1]: the FAD cofactor is non-covalently bound
Molecule: Cc1cc2nc3c(=O)[nH]c(=O)nc-3n(C[C@H](O)[C@H](O)[C@H](O)COP(=O)(O)OP(=O)(O)OC[C@H]3O[C@@H](n4cnc5c(N)ncnc54)[C@H](O)[C@@H]3O)c2cc1C [FAD]

Molecule: CCOC(=O)[C@H](C)C(C)=O [compound 4, EMAA]
X-ray crystallography, 2.80 Å, co-crystal ([2]; position overlaps DATD): clear electron density attributable to EMAA and DATD

Molecule: C=CCNC(=O)[C@H](O)[C@@H](O)C(=O)NCC=C [compound 5, DATD]
X-ray crystallography, 2.80 Å, co-crystal ([2]; position overlaps EMAA): clear electron density attributable to EMAA and DATD

stoichiometry N [3]: 2
Molecule: LkcE wild type (amide oxidase/macrocyclase of lankacidin biosynthesis, Streptomyces rochei) (enzyme)
